Consider 1 compound from patent US20080039629A1, “Benzothniazole compositions and their use as ubiquition ligation inhibitors” (RIGEL PHARMACEUTICALS, INC., priority 2003, published 2008).

The target of the experiment is T1, E1 and His-E2 Ubch10 (UBC10) (Homo sapiens, UniProt P22314).
T1 construct: host or cells: E. coli (His-Ubch10); Sf9 insect cells (E1)
T1 sequence (P22314 1-1058): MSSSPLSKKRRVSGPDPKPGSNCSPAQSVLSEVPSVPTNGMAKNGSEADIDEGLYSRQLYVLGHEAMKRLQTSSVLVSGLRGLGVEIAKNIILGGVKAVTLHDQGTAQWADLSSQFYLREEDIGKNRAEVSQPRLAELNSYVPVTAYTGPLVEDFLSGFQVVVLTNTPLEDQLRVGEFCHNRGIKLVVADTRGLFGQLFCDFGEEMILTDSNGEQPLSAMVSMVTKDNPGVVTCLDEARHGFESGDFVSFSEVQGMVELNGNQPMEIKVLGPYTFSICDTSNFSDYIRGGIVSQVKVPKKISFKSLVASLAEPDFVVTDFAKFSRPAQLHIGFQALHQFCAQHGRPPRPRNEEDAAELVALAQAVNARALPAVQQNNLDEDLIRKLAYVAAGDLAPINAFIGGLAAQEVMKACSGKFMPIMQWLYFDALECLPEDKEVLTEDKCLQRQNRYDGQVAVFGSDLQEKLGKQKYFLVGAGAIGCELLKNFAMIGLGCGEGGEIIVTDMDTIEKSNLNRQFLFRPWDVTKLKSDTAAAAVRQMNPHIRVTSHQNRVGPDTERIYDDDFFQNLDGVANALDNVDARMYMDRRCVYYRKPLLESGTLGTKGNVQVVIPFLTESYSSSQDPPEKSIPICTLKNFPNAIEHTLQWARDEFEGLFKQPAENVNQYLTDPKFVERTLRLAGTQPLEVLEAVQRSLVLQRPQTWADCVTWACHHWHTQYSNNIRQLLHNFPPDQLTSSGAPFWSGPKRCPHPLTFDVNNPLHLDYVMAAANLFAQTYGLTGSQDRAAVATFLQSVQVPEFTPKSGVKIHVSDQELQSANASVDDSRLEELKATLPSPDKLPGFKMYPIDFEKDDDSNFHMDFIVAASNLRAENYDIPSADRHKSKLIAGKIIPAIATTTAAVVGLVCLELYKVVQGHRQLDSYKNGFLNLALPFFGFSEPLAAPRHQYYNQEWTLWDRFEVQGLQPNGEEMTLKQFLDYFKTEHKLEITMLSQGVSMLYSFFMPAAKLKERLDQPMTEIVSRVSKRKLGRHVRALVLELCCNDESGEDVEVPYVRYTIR
In words: ATP competitive assay, 200 μM ATP (high ATP). The experiment is classed as biochemical. The conditions noted are these: conclusion from UBC10 inhibition at 1 μM versus 200 μM ATP. How it is done:
The attachment of a ubiquitin moiety to the E2 conjugating agent was assayed using Flag-ubiquitin that was purified from E. coli, E2 Ubch10 that was purified as a His-Ubch10 from E. coli, and E1 that was purified from Sf9 insect cells (Affiniti Research Products, Exeter, U.K.). The wells of a Nickel-substrate 96-well plate (Pierce Chemical) were blocked with 100 μl of 1% casein/phosphate buffered saline (PBS) for 1 hour at room temperature. The blocked Nickel-substrate plate was then washed three times with 200 μl of PBST (0.1% Tween-20 in PBS). […] The final reaction solution volume was fixed to 80 μl with Millipore-filtered water. To this was added the following: a ubiquitin agent inhibitor in 10 μl of DMSO, 10 μl of E1 and His-E2 Ubch10 in 20 mM Tris buffer, pH 7.5, and 5% glycerol so that there was 10 ng/well of E1 and 20 ng/well of His-E2 Ubch10. […]
After 1 hour, the wells were washed three times with 200 μl of PBST and the amount of E2-ubiquitin complex was measured. […] The luminescence of each well was then measured using a […] to calculate the amount of E2-ubiquitin complex. […]
The table below illustrates the ATP competitive inhibition properties of the pharmaceutical compositions of the invention comprising the compounds listed in the table using the ATP competitive assay described above. Inhibition was measured using IC50 values.

Take `COc1ccc2sc(NC(=O)c3ccc4c(c3)OCCO4)nc2c1` [Compound 14, N-(5-methoxy-1,3-benzothiazol-2-yl)-2,3-dihydro-1,4-benzodioxine-6-carboxamide]: the Results entry is reported as “ATP competitve”.
